The values that follow come from PMC12067444, “Synthesis and Pharmacological Characterization of Novel Peripheral Cannabinoid-1 Receptor Blockers Based on a Tricyclic Scaffold” (Journal of Medicinal Chemistry, 2025).

Data set [1] is described as follows: Tissue distribution after acute oral administration. Type of data set: in vivo, mouse. The note with it: male, C57Bl/6J, mouse, 1 mg/kg PO, 1 h post-acute administration. As for the experimental part:
Male C57Bl/6J mice aged 7–9 weeks (3–4 mice per compound) were fasted overnight before administering each test compound. The compounds were accurately weighed and mixed with an appropriate vehicle to prepare a clear oral solution. The formulations were freshly prepared on the dosing day, and the mice were administered the compound via oral gavage within 4 h of formulation preparation. 1, 2, 4, and 8 h after compound administration, the mice were euthanized, and approximately 200 μL of blood was collected via cardiac puncture for plasma preparation. Brain and liver tissues were harvested and processed for analysis. Sample analysis was performed using LC-MS/MS, as described in detail in the SI. […]
calculated using the equation:
Lucif er yellow = VV bbbbbbbbbbbbbbbbbbbb ×RR FFFF bbbbbbbbbbbbbbbbbbbb ×100 […]
Measurements of BNS808 using LC-MS/MS. MS/MS analyses were conducted using a Sciex QTRAP® 6500+ mass spectrometer (Framingham, MA, USA). Air was […]
Infinity 1031 nitrogen generator (Peak Scientific, Inchinnan, Scotland). Purified air […]
generator to ensure a continuous and stable air supply.

Data set [2] is described as follows: Brain compound levels in the CNS side-effect study (Figure 2H). Type of data set: in vivo. The note with it: male, C57Bl/6J, mouse, brain; rimonabant 10 mg/kg PO, 1 h after administration. The procedure:
The ability of BNS808 and rimonabant (as a positive control) to induce centrally mediated hyperactivity in mice (A–C). Wild-type, male, C57Bl/6J mice received a single dose of rimonabant (10 mg/kg, PO), BNS808 (1 or 10 mg/kg, PO) or vehicle, and the Promethion High-Definition Behavioral Phenotyping System monitored the activity profile. In addition, the ability of BNS808 and rimonabant (as a positive control) to inhibit the hypomotility induced by a CB1R receptor agonist (HU210; 30 μg/kg, IP) was tested in wild-type, male, C57Bl/6J mice which received a single dose of rimonabant (10 mg/kg, PO) or BNS808 (1 or 10 mg/kg, PO) or vehicle (D–F). […] Data represent the mean ± SEM from 4 to 8 mice per group. *P < 0.05 vs Vehicle-treated control. ^#P < 0.05 vs rimonabant.

A further data set concerns mice. The data set is described as follows: Cataleptic behavior (bar test) induced by WIN-55,212. The note with it: rimonabant 10 mg/kg PO, BNS808 1 mg/kg; 30 min before WIN-55,212 3 mg/kg IP; bar test at 60 min. Format: in vivo, mouse. The procedure:
Catalepsy was assayed using the bar test. Mice were taken out of their home cages, and their forepaws were placed on a horizontal bar measuring 0.5 cm in diameter, positioned 4 cm above the bench surface. Typically, vehicle-treated mice released the bar within 2 s. Cataleptic behavior was defined as the mice remaining motionless, grasping onto the bar, with an arbitrary cutoff of 30 s. The CB1R antagonists, including rimonabant at doses 1 and 10 mg/kg and BNS808 at a dose of 1 mg/kg, were administered 30 min before the IP injection of 3 mg/kg WIN-55,212 (a CB1R agonist). The test was conducted 60 min after the administration of the agonist.

The test system of another data set is mouse brain tissue. Description: in vitro. To be noted: mouse, 5 h, 1 µM. The procedure:
(§1) Protein binding of test compound in mouse brain using equilibrium dialysis […]
(§2) method. Solution A (0. 5 mM) was prepared by mixing 10 µL of a 10 mM stock solution […]
(§3) with 190 µL of DMSO. Subsequently, Solution B (0.02 mM) was prepared by adding […]
(§4) 8 µL of solution A to 192 µL of 0.05 M sodium phosphate buffer. The final concentration of DMSO in Solution B was 4%.
(§5) A 96-well plate was initially prepared by dispensing 380 µL aliquots of brain […]
(§6) tissue into wells designated for the brain while t h e buffer was added to the remaining […]
(§7) wells to serve as a control. Subsequently, 20 µL of Solution B (containing 0.02 mM of […]
(§8) test and reference compounds) was spiked into the pre-loaded brain samples in the […]
(§9) plate. This step yielded a final test concentration of 1 µM, containing 0.2% DMSO. A duplicate system was establi shed for the dialysis sampl es wherein brain tissu e was prepared against buffer. Initially, 100 µL aliquots of blank dialysis buffer were applied to the receiver side of the dialysis chambers. Subsequently, 100 µL aliquots of the brain […]
(§10) tissue spiked with te st and reference compounds were applied to the donor side of the […]
(§11) T0 brain samples for initial concentrations were prepared in duplicate. A 25µL […]
(§12) aliquot of the brain spiked with test and reference compounds was transferred into a 96- […]
(§13) well sample preparation plate. An equivalent volume of blank buffer was then added […]
(§14) to each well. Af ter the 5-hour incubation period, aliquots of 25 µL wer e taken f r om t h e […]
(§15) dialysis apparatus's donor and receiver sides and transferred into new sample […]
(§16) preparation plates. An equal volume of the opposite matrix (blank buffer to brain and […]
(§17) vice versa) was added to each well, resulting in a final volume of 50 µL in each well.
(§18) The samples (both T0 and f i v e h) were then quenched with 200 µL of acetonitrile […]
(§19) containing internal standard (IS) and vortexed at 600 rpm for 10 minutes. After […]
(§20) vortexing, the samples were centrifuged at 5594 × g for 15 minutes. Subsequently, 50 […]
(§21) µL of the supernatants were transferred to a new 96-well plate and mixed with 50 µL […]
(§22) of Milli- Q water. T he sample plates wer e cover ed and stor ed in a f r eezer ( -20 ℃) until […]
(§23) respectively. For data analysis, the following equations wer e used:
(§24) % Bound = 100 × ([Donor]5h -[ Receiver] 5h) / [Donor] 5h
(§25) % Recovery= 100 × ([Donor]5h +[Receiver] 5h) / [Initial] 0h
(§26) Undiluted Fu (%) = (1/D) / [(1/Fu2-1 ) + 1/ D ]
(§27) Whereas; D: Dilution factor = Dilution factor of brain: 4

A short description of another data set: in vitro. To be noted: mouse. The procedure: as §1, §2, §3, §4, §5, §6, §7, §8, §9, §10, §11, §12, §13, §14, §15, §16, §17, §18, §19, §20, §21, §22, §23, §24, §25, §26, §27

Each structure is given as a SMILES string. Read-outs that look alike come from different tables or passages of the source.

For `Cc1c(C(=O)NN2CCCCC2)nn(-c2ccc(Cl)cc2Cl)c1-c1ccc(Cl)cc1` [rimonabant], the Kp at 1 h is 4.28 in data set [1] (brain / plasma, read-out: brain-to-plasma (B/P) ratio) and 7.4 in data set [1] (liver / plasma, read-out: liver/plasma (L/P) ratio). The concentration at 1 h stood at 128 ng/g in data set [1] (brain, read-out: brain concentration); 226 ng/g in data set [1] (liver, read-out: liver concentration); 30 ng/mL in data set [1] (plasma, read-out: plasma concentration); 600 ng/g in data set [2]. In addition, the “blockade of WIN-55,212-induced cataleptic behavior” value with mice is on record as “blocked the cataleptic behavior”.
What is called fraction unbound is free concentration divided by total concentration. Turning to `CC(=O)CC(c1ccccc1)c1c(O)c2ccccc2oc1=O` (centres unmarked) [Warfarin, reference compound], in the data set with mouse brain tissue, the “Fraction of bound (%)” value worked out at 39.5% and the “Undiluted Bound (%)” value is 72.3%. This molecule returned a free fraction (fraction unbound) at 5 h, 1 µM in the data set “in vitro” of 0.277. The fraction unbound at 5 h, 1 µM in “in vitro” (tissue homogenate) was 0.605.
